According to US9345244B2, “Plant growth regulating compounds” (Syngenta Participations AG, priority 2011, dated 2016):

Legend:
[1] = system: Wheat (Triticum aestivum) seeds of the variety Arina; test: Wheat assay (plant area and root curliness); assay type: in vivo; settings: wheat var. Arina seeds in mini-pouches with 5 mL compound solution; twelve days after sowing/application
Procedure: Two bioassays were developed in order to assay the activity of the compounds of the present invention. In the first assay, the activity of the compound was quantified in beans based on its effect on the elongation of the petiole of the second leaf. In the second assay, the compound's effect on the root growth of wheat was determined.
The test compounds were dissolved in small volumes of dimethyl sulfoxide and diluted to the appropriate concentration with water. Wheat (Triticum aestivum) seeds of the variety Arina were sown in mini-pouches (10.5×9.0 cm) containing 5 mL of the appropriate compound solution. The mini pouches were stored at 17° C. for three days to enable the seeds to germinate. Plants were then stored at 5° C. Twelve days after sowing/application, plants were removed from the mini-pouches and scanned. The effect of the compounds was quantified by determining plant (root and shoot) area and curliness of the roots (curliness is an indicator of brassinosteroid-type activity).

SMILES	curliness of the roots (indicator of brassinosteroid-type activity) [1]	melting point [°C]
CCOc1cc(NC(=O)CCC(=O)O)ncc1Cl [Compound A32, 4-[(5-chloro-4-ethoxy-2-pyridyl)amino]-4-oxo-butanoic acid]	curly root phenotype	
CCOc1cc(NC(=O)CCC(=O)OC)ncc1Br [Compound A38, Methyl 4-[(5-bromo-4-ethoxy-2-pyridyl)amino]-4-oxo-butanoate]	curly root phenotype	
CCOC(=O)CCC(=O)Nc1ccc(C#N)cn1 [Compound A22, Ethyl 4-[(5-cyano-2-pyridyl)amino]-4-oxo-butanoate]	curly root phenotype	
O=C(O)CCC(=O)Nc1ccc(C(F)(F)F)cn1 [Compound A19, 4-oxo-4-[[5-(trifluoromethyl)-2-pyridyl]amino]butanoic acid]	curly root phenotype	
COC(=O)CCC(=O)Nc1ccc(-c2nnn[nH]2)cn1 [Compound A65, Methyl 4-oxo-4-[[5-(1H-tetrazol-5-yl)-2-pyridyl]amino]butanoate]		246 to 248
N#Cc1ccc(NC(=O)CCC(=O)O)nc1 [Compound A2, 4-[(5-cyano-2-pyridyl)amino]-4-oxo-butanoic acid]	curly root phenotype	220 to 221
CCOc1cc(NC(=O)CCC(=O)OC)ncc1Cl [Compound A31, Methyl 4-[(5-chloro-4-ethoxy-2-pyridyl)amino]-4-oxo-butanoate]	curly root phenotype	
COC(=O)C(C)(C)CC(=O)Nc1ccc(C#N)cn1 [Compound B1, Methyl 4-[(5-cyano-2-pyridyl)amino]-2,2-dimethyl-4-oxo-butanoate]		129
COC(=O)CCC(=O)Nc1ccc(C#N)cn1 [Compound A1, methyl 4-[(5-cyano-2-pyridyl)amino]-4-oxo-butanoate]	curly root phenotype	161 to 164
N#Cc1cc(I)cnc1NC(=O)CCC(=O)O [Compound A4, 4-[(3-cyano-5-iodo-2-pyridyl)amino]-4-oxo-butanoic acid]		215 to 218
CCOc1cc(NC(=O)CCC(=O)O)ncc1Br [Compound A39, 4-[(5-bromo-4-ethoxy-2-pyridyl)amino]-4-oxo-butanoic acid]	curly root phenotype	
